From ChEMBL document CHEMBL4402613, “Targeting ALK2: An Open Science Approach to Developing Therapeutics for the Treatment of Diffuse Intrinsic Pontine Glioma” (J Med Chem, 2020) come the findings set out here.

For data set [1], the target named is T1, TGF-beta receptor type-1 (Homo sapiens, UniProt P36897).
T1 sequence (P36897 whole entry): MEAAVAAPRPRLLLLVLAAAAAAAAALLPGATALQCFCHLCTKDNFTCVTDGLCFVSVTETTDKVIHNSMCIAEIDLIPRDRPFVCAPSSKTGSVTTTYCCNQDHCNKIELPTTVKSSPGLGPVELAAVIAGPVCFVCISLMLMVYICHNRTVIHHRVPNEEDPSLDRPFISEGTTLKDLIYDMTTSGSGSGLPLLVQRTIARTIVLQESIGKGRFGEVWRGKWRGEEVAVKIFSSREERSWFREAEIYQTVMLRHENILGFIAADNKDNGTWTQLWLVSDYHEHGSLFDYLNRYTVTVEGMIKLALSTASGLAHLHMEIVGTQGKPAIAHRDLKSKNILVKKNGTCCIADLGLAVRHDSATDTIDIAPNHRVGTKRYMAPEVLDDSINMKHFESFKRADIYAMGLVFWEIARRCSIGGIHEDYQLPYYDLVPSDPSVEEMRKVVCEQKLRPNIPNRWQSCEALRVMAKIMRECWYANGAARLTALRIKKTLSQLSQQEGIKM
The class given is single protein.
Description: Inhibition of human ALK5 using casein as substrate in presence of 10 uM [gamma33P] ATP by radioactive assay

The target in data set [2] is T2, Activin receptor type-1 (Homo sapiens, UniProt Q04771).
T2 sequence (Q04771 whole entry): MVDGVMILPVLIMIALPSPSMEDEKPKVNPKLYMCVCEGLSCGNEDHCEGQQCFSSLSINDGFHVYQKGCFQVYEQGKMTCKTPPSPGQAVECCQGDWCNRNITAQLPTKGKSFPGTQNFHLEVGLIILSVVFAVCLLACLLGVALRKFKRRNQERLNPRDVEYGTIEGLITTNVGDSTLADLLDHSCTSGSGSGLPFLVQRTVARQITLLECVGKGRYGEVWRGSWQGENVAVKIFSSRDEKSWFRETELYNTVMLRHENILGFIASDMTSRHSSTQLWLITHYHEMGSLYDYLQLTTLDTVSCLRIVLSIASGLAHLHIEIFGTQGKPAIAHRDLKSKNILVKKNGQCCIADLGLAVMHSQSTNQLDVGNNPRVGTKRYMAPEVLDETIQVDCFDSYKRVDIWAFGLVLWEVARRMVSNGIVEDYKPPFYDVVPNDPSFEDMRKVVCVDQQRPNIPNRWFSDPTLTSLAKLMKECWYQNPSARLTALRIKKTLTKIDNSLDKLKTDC
The experiment in a line: Inhibition of C-terminal nanoluciferase-fused ALK2 (unknown origin) expressed in HEK293 cells incubated for 2 hrs followed by NanoBRET NanoGlo Substrate addition by NanoBRET assay. The class given is cell-based. On the technique in general: In BRET a luciferase serves as donor, and the signal depends on an acceptor being close.

The target of data set [3] is T1, TGF-beta receptor type-1. The class given is cell-based, HEK293.
Description: Inhibition of ALK5 (unknown origin) expressed in HEK293 cells transfected with CAGA-luciferase and Renilla luciferase reporter measured after 24 hrs by dual luciferase reporter assay
The target in data set [4] is Activin receptor type-1-like (Homo sapiens) (UniProt P37023). Briefly: Inhibition of ALK1 (unknown origin) at 1 uM.
Data set [5] concerns the target Bone morphogenetic protein receptor type-1A (Homo sapiens) (UniProt P36894). Briefly: Inhibition of ALK3 (unknown origin) at 1 uM.
Data set [6] concerns the target Bone morphogenetic protein receptor type-1B (Homo sapiens) (UniProt O00238). The experiment in a line: Inhibition of ALK6 (unknown origin) at 1 uM.
Data set [7] has as its target T3, Serine/threonine-protein kinase A-Raf (Homo sapiens) (UniProt P10398).
T3 sequence (whole entry): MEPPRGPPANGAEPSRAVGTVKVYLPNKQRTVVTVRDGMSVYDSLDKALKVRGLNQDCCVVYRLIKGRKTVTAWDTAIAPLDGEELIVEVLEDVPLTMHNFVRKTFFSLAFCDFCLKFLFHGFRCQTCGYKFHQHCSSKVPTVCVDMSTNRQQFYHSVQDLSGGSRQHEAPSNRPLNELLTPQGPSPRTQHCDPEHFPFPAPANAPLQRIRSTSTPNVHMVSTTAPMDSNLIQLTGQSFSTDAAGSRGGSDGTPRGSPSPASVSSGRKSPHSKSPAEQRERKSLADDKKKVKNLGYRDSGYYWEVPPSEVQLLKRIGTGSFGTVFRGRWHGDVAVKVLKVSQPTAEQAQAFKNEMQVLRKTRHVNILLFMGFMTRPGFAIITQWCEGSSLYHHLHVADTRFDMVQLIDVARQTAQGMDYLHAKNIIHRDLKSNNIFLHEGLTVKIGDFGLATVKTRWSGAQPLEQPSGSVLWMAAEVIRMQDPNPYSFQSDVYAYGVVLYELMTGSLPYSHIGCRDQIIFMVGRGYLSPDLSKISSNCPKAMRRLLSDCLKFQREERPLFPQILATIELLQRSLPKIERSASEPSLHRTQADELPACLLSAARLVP
The experiment in a line: Inhibition of ARAF (unknown origin) at 1 uM.

The target of data set [8] is Mitogen-activated protein kinase kinase kinase kinase 4 (Homo sapiens) (UniProt O95819). Briefly: Inhibition of MAP4K4 (unknown origin) at 1 uM.
The target in data set [9] is Misshapen-like kinase 1 (Homo sapiens) (UniProt Q8N4C8). The experiment in a line: Inhibition of MINK (unknown origin) at 1 uM.
Data set [10] concerns the target T4, Non-receptor tyrosine-protein kinase TNK1 (Homo sapiens) (UniProt Q13470).
T4 sequence (whole entry): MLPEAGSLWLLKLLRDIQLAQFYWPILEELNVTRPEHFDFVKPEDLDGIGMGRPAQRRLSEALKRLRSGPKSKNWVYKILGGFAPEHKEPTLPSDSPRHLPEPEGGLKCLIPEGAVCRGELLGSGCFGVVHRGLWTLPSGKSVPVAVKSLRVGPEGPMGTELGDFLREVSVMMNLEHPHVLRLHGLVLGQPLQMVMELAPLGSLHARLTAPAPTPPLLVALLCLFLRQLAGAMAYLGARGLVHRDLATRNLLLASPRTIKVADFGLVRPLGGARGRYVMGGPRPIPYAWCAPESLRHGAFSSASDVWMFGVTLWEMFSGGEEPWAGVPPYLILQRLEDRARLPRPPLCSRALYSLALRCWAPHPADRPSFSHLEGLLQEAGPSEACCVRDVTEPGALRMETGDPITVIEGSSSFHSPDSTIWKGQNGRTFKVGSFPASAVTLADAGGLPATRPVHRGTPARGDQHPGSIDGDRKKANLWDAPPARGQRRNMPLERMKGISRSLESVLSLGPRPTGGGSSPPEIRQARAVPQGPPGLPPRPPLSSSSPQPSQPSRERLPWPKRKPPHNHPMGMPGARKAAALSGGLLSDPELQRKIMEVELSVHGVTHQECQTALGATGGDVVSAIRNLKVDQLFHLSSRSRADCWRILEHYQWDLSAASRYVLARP
Briefly: Inhibition of TNK1 (unknown origin) at 1 uM.

The target of data set [11] is T2, Activin receptor type-1.
Description: Inhibition of human ALK2 using casein as substrate in presence of 10 uM [gamma33P] ATP by radioactive assay
Data set [12] deals with Voltage-gated inwardly rectifying potassium channel KCNH2 (Homo sapiens, UniProt Q12809).
Description: Inhibition of human ERG expressed in HEK293 cells measured after 5 mins by whole cell patch clamp method
For data set [13] the following is noted: mouse, microsomes, 1 h, 1 µM.
Description: Microsomal stability in CD-1 mouse liver microsomes assessed as parent compound remaining at 1 uM and 37 degree C measured after 60 mins in presence of NADP+ by LC-QTOF/MS analysis
The conditions of data set [14]: human, microsomes, 1 h, 1 µM.
Description: Microsomal stability in human liver microsomes assessed as parent compound remaining at 1 uM and 37 degree C measured after 60 mins in presence of NADP+ by LC-QTOF/MS analysis
Data set [15] can be described thus: in vitro. Conditions: human, Caco-2.
Description: Apparent permeability across apical to basolateral membrane in human Caco2 cells at 5 uM incubated for 120 mins in orbital shaker by LC-QTOF/MS analysis
Data set [16] is described as follows: in vitro. Conditions: human, Caco-2. This is another data set of the same source.
Description: Apparent permeability across basolateral to apical membrane in human Caco2 cells at 5 uM incubated for 120 mins in orbital shaker by LC-QTOF/MS analysis

SMILES strings stand for the structures. Activity calls are given as the source filed them. The calls are words filed in the database; no cut-off is given here. Some results are limits rather than exact numbers.

One may read the IC50 as the point on the concentration scale where inhibition reaches its midpoint. A low value points to inhibition by little substance. The term Papp A→B denotes the apparent permeability from the apical to the basolateral side of a cell layer. Read a high Papp A→B as fast passage. Broadly, the Papp B→A is how fast a substance crosses the layer from the basolateral side.

Voltage-gated inwardly rectifying potassium channel KCNH2, sequence (Q12809 whole entry): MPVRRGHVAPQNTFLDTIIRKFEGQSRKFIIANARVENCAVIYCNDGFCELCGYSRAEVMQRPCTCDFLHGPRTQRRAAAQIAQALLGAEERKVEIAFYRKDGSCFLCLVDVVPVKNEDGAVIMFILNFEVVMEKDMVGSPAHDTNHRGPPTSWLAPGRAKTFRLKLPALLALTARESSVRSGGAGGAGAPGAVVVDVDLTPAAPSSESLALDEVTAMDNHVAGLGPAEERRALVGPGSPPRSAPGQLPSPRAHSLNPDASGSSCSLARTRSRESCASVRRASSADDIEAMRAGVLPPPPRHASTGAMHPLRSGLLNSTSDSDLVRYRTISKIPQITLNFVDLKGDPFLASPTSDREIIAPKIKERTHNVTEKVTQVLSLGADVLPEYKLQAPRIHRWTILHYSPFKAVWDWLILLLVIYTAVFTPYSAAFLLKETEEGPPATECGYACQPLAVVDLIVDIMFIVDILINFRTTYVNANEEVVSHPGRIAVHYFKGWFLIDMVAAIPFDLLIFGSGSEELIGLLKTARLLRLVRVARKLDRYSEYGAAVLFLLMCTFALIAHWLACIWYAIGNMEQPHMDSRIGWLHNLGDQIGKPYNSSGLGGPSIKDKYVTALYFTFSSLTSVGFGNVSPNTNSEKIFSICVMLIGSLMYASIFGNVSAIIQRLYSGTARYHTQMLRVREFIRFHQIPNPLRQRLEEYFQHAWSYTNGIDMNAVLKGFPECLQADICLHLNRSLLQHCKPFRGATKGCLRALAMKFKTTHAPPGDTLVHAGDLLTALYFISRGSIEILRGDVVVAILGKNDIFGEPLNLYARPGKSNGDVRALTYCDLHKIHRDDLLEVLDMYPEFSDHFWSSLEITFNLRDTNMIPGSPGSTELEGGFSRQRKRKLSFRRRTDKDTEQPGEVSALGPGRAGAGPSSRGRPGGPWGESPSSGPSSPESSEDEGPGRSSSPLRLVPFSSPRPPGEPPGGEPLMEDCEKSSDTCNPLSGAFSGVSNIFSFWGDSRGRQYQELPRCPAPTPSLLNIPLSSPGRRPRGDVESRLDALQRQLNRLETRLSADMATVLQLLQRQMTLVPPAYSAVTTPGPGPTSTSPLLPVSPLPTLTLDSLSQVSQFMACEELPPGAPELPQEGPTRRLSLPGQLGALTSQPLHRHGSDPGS
Mitogen-activated protein kinase kinase kinase kinase 4 (Homo sapiens), sequence (O95819 2-1239 limits assumed): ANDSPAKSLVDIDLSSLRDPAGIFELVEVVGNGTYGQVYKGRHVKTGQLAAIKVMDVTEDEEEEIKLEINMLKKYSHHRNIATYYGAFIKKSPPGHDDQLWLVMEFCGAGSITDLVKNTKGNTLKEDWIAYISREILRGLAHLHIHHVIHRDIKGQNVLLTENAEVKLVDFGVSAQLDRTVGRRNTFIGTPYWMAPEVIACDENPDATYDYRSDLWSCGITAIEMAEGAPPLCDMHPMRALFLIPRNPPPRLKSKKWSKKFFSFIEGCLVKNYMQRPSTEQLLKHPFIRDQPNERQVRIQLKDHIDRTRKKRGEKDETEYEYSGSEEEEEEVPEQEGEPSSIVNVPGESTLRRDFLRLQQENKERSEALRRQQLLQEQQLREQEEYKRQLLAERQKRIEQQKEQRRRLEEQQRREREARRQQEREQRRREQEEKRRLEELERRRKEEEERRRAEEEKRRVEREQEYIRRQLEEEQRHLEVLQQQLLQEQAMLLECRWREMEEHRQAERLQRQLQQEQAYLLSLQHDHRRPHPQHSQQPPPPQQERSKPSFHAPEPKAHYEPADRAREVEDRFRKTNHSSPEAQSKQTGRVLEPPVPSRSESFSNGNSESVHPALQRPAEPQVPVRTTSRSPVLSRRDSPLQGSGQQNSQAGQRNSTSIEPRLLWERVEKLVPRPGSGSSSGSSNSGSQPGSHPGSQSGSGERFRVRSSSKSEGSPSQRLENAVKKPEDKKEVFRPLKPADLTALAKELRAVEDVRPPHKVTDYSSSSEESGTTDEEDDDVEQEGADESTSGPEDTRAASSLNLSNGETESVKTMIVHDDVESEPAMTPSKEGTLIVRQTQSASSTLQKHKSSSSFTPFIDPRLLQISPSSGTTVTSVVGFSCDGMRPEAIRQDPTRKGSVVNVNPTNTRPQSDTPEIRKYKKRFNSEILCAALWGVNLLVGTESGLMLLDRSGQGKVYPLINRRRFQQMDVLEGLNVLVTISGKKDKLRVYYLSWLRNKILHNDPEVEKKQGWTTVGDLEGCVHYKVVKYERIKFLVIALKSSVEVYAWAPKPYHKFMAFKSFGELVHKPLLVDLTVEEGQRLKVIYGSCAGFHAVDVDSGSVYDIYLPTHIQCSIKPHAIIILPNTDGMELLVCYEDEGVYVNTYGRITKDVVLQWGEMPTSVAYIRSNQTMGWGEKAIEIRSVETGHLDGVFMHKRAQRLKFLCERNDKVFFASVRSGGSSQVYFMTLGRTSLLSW
Bone morphogenetic protein receptor type-1B (Homo sapiens), sequence (O00238 whole entry): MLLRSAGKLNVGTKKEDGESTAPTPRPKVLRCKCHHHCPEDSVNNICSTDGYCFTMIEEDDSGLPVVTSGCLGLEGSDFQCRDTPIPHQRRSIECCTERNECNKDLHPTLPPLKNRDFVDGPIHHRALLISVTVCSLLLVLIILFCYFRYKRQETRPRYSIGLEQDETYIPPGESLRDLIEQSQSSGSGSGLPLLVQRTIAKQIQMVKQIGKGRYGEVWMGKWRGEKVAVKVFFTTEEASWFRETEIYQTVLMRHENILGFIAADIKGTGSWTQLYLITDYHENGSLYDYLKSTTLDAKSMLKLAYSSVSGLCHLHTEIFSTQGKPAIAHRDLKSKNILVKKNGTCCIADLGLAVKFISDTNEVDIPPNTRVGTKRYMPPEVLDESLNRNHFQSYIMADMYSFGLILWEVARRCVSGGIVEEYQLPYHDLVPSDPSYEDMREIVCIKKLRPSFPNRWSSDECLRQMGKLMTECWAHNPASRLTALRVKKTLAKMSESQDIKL
Misshapen-like kinase 1 (Homo sapiens), sequence (Q8N4C8 whole entry, looked up): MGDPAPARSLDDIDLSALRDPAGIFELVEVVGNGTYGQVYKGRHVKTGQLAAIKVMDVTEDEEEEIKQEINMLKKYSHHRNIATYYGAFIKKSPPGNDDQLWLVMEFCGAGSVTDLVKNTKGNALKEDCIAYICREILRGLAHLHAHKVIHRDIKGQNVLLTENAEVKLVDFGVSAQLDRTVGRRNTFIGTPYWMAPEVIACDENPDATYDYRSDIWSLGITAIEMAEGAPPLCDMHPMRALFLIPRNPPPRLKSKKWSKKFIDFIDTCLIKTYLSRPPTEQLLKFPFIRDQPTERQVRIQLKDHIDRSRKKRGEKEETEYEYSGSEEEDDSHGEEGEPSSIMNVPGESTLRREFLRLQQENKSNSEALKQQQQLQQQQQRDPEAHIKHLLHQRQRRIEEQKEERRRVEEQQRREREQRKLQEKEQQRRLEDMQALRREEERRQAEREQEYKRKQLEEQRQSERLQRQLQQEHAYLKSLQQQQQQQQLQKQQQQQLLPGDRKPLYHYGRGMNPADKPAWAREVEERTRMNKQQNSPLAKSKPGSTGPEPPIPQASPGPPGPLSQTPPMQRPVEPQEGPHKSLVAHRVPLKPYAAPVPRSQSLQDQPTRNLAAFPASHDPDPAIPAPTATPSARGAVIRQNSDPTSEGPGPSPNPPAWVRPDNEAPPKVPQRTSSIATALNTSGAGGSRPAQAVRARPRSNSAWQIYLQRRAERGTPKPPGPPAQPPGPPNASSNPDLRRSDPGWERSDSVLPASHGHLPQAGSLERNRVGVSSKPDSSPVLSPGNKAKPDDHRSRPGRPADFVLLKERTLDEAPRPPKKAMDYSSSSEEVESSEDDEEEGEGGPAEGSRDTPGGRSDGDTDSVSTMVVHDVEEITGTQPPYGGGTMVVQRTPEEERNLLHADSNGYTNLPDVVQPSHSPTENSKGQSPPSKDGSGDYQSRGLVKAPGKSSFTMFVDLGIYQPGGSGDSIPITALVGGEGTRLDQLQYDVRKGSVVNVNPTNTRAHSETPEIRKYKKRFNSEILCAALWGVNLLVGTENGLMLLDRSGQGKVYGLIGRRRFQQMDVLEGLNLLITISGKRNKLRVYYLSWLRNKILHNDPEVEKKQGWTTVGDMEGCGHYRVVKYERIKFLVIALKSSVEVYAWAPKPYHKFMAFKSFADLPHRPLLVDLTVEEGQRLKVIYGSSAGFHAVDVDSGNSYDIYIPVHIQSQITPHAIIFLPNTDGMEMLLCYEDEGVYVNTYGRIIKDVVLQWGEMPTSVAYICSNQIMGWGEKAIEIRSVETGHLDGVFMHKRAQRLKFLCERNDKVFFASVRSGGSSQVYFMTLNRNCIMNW
Activin receptor type-1-like (Homo sapiens), sequence (P37023 whole entry): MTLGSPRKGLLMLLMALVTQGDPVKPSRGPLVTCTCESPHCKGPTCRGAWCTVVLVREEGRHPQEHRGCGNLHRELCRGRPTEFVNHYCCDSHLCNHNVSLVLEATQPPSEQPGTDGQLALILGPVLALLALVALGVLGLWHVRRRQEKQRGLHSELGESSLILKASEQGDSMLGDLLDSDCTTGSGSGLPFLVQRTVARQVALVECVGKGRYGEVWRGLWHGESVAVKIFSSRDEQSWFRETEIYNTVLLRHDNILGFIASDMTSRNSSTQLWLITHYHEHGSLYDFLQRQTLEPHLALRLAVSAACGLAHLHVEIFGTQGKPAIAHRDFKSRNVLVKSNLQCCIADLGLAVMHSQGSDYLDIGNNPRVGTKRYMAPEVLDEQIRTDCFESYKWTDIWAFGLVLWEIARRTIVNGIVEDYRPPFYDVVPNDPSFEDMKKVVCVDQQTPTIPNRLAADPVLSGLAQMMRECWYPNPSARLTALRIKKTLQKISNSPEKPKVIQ

Consider `COc1cc(-c2cncc(-c3ccc(N4C[C@@H](C)N(C)[C@@H](C)C4)cc3)c2C)cc(F)c1C(N)=O`, for which the IC50 is 2910 nM in data set [1]; 100 nM in data set [2]; over 5000 nM in data set [3]; 10 nM in data set [11]; 19000 nM in data set [12]. Besides, the inhibition entry in data set [4], in [5], in data set [6], in [7], in [8] and in data set [9] was “Active” each time. In addition, the inhibition entry in data set [10] was “Active”. The Stability entry in data set [13] and in [14] was “Stable” in each case. The compound further returned a Papp A→B at 2 h, 5 µM in data set [15] of 4.3 ×10⁻⁶ cm/s. This compound gave a Papp B→A at 2 h, 5 µM in data set [16] of 14.5 ×10⁻⁶ cm/s.
